*1 amine or outer side, *2 acyl side, *3 side chain or, on linkers, in order; H or OH if unused. Where a SMILES comes first, the peptide text is derived from it. Side-chain parts run from the residue outwards. [ ]: non-standard residue; d: D form. The star is where a group is joined. Isobutyryl(2-(3-CN-5-F-Ph)) = CC(C)(C(=O)*)c1cc(F)cc(C#N)c1; C20 diacid = O=C(O)CCCCCCCCCCCCCCCCCCC(=O)*; γGlu = O=C(O)[C@H](CCC(=O)[*:2])N[*:1]; X68 = CC(C)[C@@H](CN[*:1])C(=O)[*:2]; X58 = Cc1cc(F)cc(C(C)(C)C(=O)*)c1; X13 = CC(C)(C(=O)*)c1cccc(F)c1F; X61 = CC(C)(C(=O)*)c1ccccc1F; Dap = NC[C@H](N)C(=O)O; AEEA = NCCOCCOCC(=O)O; Aib = CC(C)(N)C(=O)O; βAla = NCCC(=O)O
What was measured:
Type in all cases: cell-based
[1] = target: T1, GLP-1 receptor (Homo sapiens, UniProt P43220); experiment: HitHunter cAMP assay, GLP-1 receptor; conditions: for EC50: CHO cells stably expressing human GLP-1 receptor, cAMP accumulation, 30 min, read-out: EC50 GLP-1R; for Emax: CHO cells, cAMP, normalized to maximum signal from GLP-1 (high) and DMSO (low), read-out: Emax GLP-1R
[2] = target: T2, GIP receptor (Homo sapiens, UniProt P48546); experiment: HitHunter cAMP assay, GIP receptor; conditions: for EC50: CHO cells stably expressing GIP receptor, cAMP accumulation, 30 min, read-out: EC50 GIP-1R; for Emax: CHO cells, cAMP, normalized to maximum signal from GIP (high) and DMSO (low), read-out: Emax GIP-1R
T2 sequence (P48546 22-466): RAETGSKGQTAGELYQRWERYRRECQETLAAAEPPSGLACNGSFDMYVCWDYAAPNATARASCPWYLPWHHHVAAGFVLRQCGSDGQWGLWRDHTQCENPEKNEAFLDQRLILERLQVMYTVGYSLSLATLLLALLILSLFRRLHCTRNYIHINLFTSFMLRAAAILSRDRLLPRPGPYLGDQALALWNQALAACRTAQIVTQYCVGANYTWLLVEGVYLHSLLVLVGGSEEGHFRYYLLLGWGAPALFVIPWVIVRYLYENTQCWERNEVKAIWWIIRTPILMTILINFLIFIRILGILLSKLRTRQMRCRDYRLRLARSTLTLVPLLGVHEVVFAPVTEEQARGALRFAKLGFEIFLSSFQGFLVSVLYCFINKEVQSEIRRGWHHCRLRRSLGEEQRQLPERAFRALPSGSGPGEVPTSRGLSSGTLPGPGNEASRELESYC

[3] = target: T2, GIP receptor; experiment: PathHunter β-arrestin assay, GIP receptor; design: host or cells: PathHunter CHO-K1 GIPR β-Arrestin Cell Line; conditions: β-arrestin-2 recruitment, PathHunter CHO-K1 GIPR β-Arrestin Cell Line, 90 min at 37° C.; normalized to GIP; read-out: GIPR β Arrestin EC50
[4] = target: T1, GLP-1 receptor; experiment: PathHunter β-arrestin assay, GLP-1 receptor; design: host or cells: PathHunter CHO-K1 GLP1R β-Arrestin Cell Line; conditions: β-arrestin-2 recruitment, PathHunter CHO-K1 GLP1R β-Arrestin Cell Line, 90 min at 37° C.; normalized to GLP-1; read-out: GLP-1R β Arrestin EC50

T1 sequence (P43220 24-463): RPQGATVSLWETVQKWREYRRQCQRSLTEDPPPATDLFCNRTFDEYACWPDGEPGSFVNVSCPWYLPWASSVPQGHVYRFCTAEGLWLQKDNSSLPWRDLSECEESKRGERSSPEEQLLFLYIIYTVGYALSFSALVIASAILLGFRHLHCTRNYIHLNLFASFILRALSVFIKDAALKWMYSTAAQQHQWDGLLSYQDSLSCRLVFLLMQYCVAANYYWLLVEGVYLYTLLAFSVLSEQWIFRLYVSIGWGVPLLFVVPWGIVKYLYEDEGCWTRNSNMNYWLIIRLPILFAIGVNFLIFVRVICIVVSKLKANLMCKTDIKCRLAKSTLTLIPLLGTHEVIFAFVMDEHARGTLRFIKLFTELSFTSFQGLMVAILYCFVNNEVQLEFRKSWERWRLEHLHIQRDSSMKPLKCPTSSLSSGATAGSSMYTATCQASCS

Compound `CC[C@H](C)[C@H](NC(=O)[C@H](CC(C)C)NC(=O)[C@H](Cc1c[nH]c2ccccc12)NC(=O)[C@H](CCC(N)=O)NC(=O)[C@@H](NC(=O)[C@H](Cc1ccccc1)NC(=O)[C@H](C)NC(=O)[C@H](CCCCNC(=O)COCCOCCNC(=O)COCCOCCNC(=O)CC[C@H](NC(=O)CCCCCCCCCCCCCCCCCCC(=O)O)C(=O)O)NC(=O)[C@H](CCC(N)=O)NC(=O)[C@H](C)NC(=O)[C@@H](NC(=O)[C@H](CCCCN)NC(=O)[C@H](CC(=O)O)NC(=O)[C@H](CC(C)C)NC(=O)C(C)(C)NC(=O)[C@@H](NC(=O)[C@H](CO)NC(=O)[C@H](Cc1ccc(O)cc1)NC(=O)[C@H](CC(=O)O)NC(=O)[C@H](CO)NC(=O)[C@@H](NC(=O)[C@H](Cc1ccccc1)NC(=O)[C@@H](NC(=O)CNC(=O)[C@H](CCC(=O)O)NC(=O)CCNC(=O)C(C)(C)c1cccc(F)c1F)[C@@H](C)O)[C@@H](C)O)[C@@H](C)CC)[C@@H](C)CC)C(C)C)C(=O)N[C@@H](C)C(=O)NCC(=O)NCC(=O)N1CCC[C@H]1C(=O)N[C@@H](CO)C(=O)N[C@@H](CO)C(=O)NCC(=O)N[C@@H](C)C(=O)N1CCC[C@H]1C(=O)N1CCC[C@H]1C(=O)N1CCC[C@H]1C(=O)N[C@@H](CO)C(N)=O` [Compound 147] ({X13-βAla}-EGTFTSDYSI[Aib]LDKIAQK([AEEA-AEEA-γGlu-C20 diacid])AFVQWLIAGGPSSGAPPPS-NH2) has an EC50 [1] of 0.1 to 1 nM, an Emax [1] of 99% and an EC50 [2] of 0.1 to 1 nM. For the same compound, the Emax [2] was 102%, the EC50 [3] was < 1000 nM and the EC50 [4] was > 1000 nM.
`CC[C@H](C)[C@H](NC(=O)[C@H](CC(C)C)NC(=O)[C@H](Cc1c[nH]c2ccccc12)NC(=O)[C@H](CCC(N)=O)NC(=O)[C@@H](NC(=O)[C@H](Cc1ccccc1)NC(=O)[C@H](C)NC(=O)[C@H](CCCCNC(=O)COCCOCCNC(=O)COCCOCCNC(=O)CC[C@H](NC(=O)CCCCCCCCCCCCCCCCCCC(=O)O)C(=O)O)NC(=O)[C@H](CCC(N)=O)NC(=O)[C@H](C)NC(=O)[C@@H](NC(=O)[C@H](CCCCN)NC(=O)[C@H](CC(=O)O)NC(=O)[C@H](CC(C)C)NC(=O)C(C)(C)NC(=O)[C@@H](NC(=O)[C@H](CO)NC(=O)[C@H](Cc1ccc(O)cc1)NC(=O)[C@H](CC(=O)O)NC(=O)[C@H](CO)NC(=O)[C@@H](NC(=O)[C@H](Cc1ccccc1)NC(=O)[C@@H](NC(=O)CNC(=O)[C@H](CCC(=O)O)NC(=O)[C@@H](N)CNC(=O)C(C)(C)c1cc(F)cc(C#N)c1)[C@@H](C)O)[C@@H](C)O)[C@@H](C)CC)[C@@H](C)CC)C(C)C)C(=O)N[C@@H](C)C(=O)NCC(=O)NCC(=O)N1CCC[C@H]1C(=O)N[C@@H](CO)C(=O)N[C@@H](CO)C(=O)NCC(=O)N[C@@H](C)C(=O)N1CCC[C@H]1C(=O)N1CCC[C@H]1C(=O)N1CCC[C@H]1C(=O)N[C@@H](CO)C(N)=O` [Compound 191] (H-[Dap](Isobutyryl(2-(3-CN-5-F-Ph)))EGTFTSDYSI[Aib]LDKIAQK([AEEA-AEEA-γGlu-C20 diacid])AFVQWLIAGGPSSGAPPPS-NH2) gave an EC50 [1] of 1 to 10 nM, an Emax [1] of 92% and an EC50 [2] of 10 to 100 nM. For the same compound, the Emax [2] was 98%, the EC50 [3] was > 1000 nM and the EC50 [4] was > 1000 nM.
Compound `CC[C@H](C)[C@H](NC(=O)[C@H](CC(C)C)NC(=O)[C@H](Cc1c[nH]c2ccccc12)NC(=O)[C@H](CCC(N)=O)NC(=O)[C@@H](NC(=O)[C@H](Cc1ccccc1)NC(=O)[C@H](C)NC(=O)[C@H](CCCCNC(=O)COCCOCCNC(=O)COCCOCCNC(=O)CC[C@H](NC(=O)CCCCCCCCCCCCCCCCCCC(=O)O)C(=O)O)NC(=O)[C@H](CCC(N)=O)NC(=O)[C@H](C)NC(=O)[C@@H](NC(=O)[C@H](CCCCN)NC(=O)[C@H](CC(=O)O)NC(=O)[C@H](CC(C)C)NC(=O)C(C)(C)NC(=O)[C@@H](NC(=O)[C@H](CO)NC(=O)[C@H](Cc1ccc(O)cc1)NC(=O)[C@H](CC(=O)O)NC(=O)[C@H](CO)NC(=O)[C@@H](NC(=O)[C@H](Cc1ccccc1)NC(=O)[C@@H](NC(=O)CNC(=O)[C@H](CCC(=O)O)NC(=O)CCNC(=O)C(C)(C)c1ccccc1F)[C@@H](C)O)[C@@H](C)O)[C@@H](C)CC)[C@@H](C)CC)C(C)C)C(=O)N[C@@H](C)C(=O)NCC(=O)NCC(=O)N1CCC[C@H]1C(=O)N[C@@H](CO)C(=O)N[C@@H](CO)C(=O)NCC(=O)N[C@@H](C)C(=O)N1CCC[C@H]1C(=O)N1CCC[C@H]1C(=O)N1CCC[C@H]1C(=O)N[C@@H](CO)C(N)=O` [Compound 198] ({X61-βAla}-EGTFTSDYSI[Aib]LDKIAQK([AEEA-AEEA-γGlu-C20 diacid])AFVQWLIAGGPSSGAPPPS-NH2) has an EC50 [1] of 0.1 to 1 nM, an Emax [1] of 99% and an EC50 [2] of 1 to 10 nM. The Emax [2] was 102%, the EC50 [3] was < 1000 nM and the EC50 [4] was > 1000 nM.
In the case of `CC[C@H](C)[C@H](NC(=O)[C@H](CC(C)C)NC(=O)[C@H](Cc1c[nH]c2ccccc12)NC(=O)[C@H](CCC(N)=O)NC(=O)[C@@H](NC(=O)[C@H](Cc1ccccc1)NC(=O)[C@H](C)NC(=O)[C@H](CCCCNC(=O)COCCOCCNC(=O)COCCOCCNC(=O)CC[C@H](NC(=O)CCCCCCCCCCCCCCCCCCC(=O)O)C(=O)O)NC(=O)[C@H](CCC(N)=O)NC(=O)[C@H](C)NC(=O)[C@@H](NC(=O)[C@H](CCCCN)NC(=O)[C@H](CC(=O)O)NC(=O)[C@H](CC(C)C)NC(=O)C(C)(C)NC(=O)[C@@H](NC(=O)[C@H](CO)NC(=O)[C@H](Cc1ccc(O)cc1)NC(=O)[C@H](CC(=O)O)NC(=O)[C@H](CO)NC(=O)[C@@H](NC(=O)[C@H](Cc1ccccc1)NC(=O)[C@@H](NC(=O)CNC(=O)[C@H](CCC(=O)O)NC(=O)CCNC(=O)C(C)(C)c1cc(C)cc(F)c1)[C@@H](C)O)[C@@H](C)O)[C@@H](C)CC)[C@@H](C)CC)C(C)C)C(=O)N[C@@H](C)C(=O)NCC(=O)NCC(=O)N1CCC[C@H]1C(=O)N[C@@H](CO)C(=O)N[C@@H](CO)C(=O)NCC(=O)N[C@@H](C)C(=O)N1CCC[C@H]1C(=O)N1CCC[C@H]1C(=O)N1CCC[C@H]1C(=O)N[C@@H](CO)C(N)=O` [Compound 144] ({X58-βAla}-EGTFTSDYSI[Aib]LDKIAQK([AEEA-AEEA-γGlu-C20 diacid])AFVQWLIAGGPSSGAPPPS-NH2), the EC50 [1] is reported as < 0.1 nM, the Emax [1] is reported as 99% and the EC50 [2] is reported as 1 to 10 nM. For the same compound, the Emax [2] was 103%, the EC50 [3] was > 1000 nM and the EC50 [4] was > 1000 nM.
`CC[C@H](C)[C@H](NC(=O)[C@H](CC(C)C)NC(=O)[C@H](Cc1c[nH]c2ccccc12)NC(=O)[C@H](CCC(N)=O)NC(=O)[C@@H](NC(=O)[C@H](Cc1ccccc1)NC(=O)[C@H](C)NC(=O)[C@H](CCCCNC(=O)COCCOCCNC(=O)COCCOCCNC(=O)CC[C@H](NC(=O)CCCCCCCCCCCCCCCCCCC(=O)O)C(=O)O)NC(=O)[C@H](CCC(N)=O)NC(=O)[C@H](C)NC(=O)[C@@H](NC(=O)[C@H](CCCCN)NC(=O)[C@H](CC(=O)O)NC(=O)[C@H](CC(C)C)NC(=O)C(C)(C)NC(=O)[C@@H](NC(=O)[C@H](CO)NC(=O)[C@H](Cc1ccc(O)cc1)NC(=O)[C@H](CC(=O)O)NC(=O)[C@H](CO)NC(=O)[C@@H](NC(=O)[C@H](Cc1ccccc1)NC(=O)[C@@H](NC(=O)CNC(=O)[C@H](CCC(=O)O)NC(=O)[C@H](CNC(=O)C(C)(C)c1cc(F)cc(C#N)c1)C(C)C)[C@@H](C)O)[C@@H](C)O)[C@@H](C)CC)[C@@H](C)CC)C(C)C)C(=O)N[C@@H](C)C(=O)NCC(=O)NCC(=O)N1CCC[C@H]1C(=O)N[C@@H](CO)C(=O)N[C@@H](CO)C(=O)NCC(=O)N[C@@H](C)C(=O)N1CCC[C@H]1C(=O)N1CCC[C@H]1C(=O)N1CCC[C@H]1C(=O)N[C@@H](CO)C(N)=O` [Compound 171] ({Isobutyryl(2-(3-CN-5-F-Ph))}-[X68]EGTFTSDYSI[Aib]LDKIAQK([AEEA-AEEA-γGlu-C20 diacid])AFVQWLIAGGPSSGAPPPS-NH2) showed an EC50 [1] of 10 to 100 nM, an Emax [1] of 109% and an EC50 [2] of 100 to 1000 nM. For the same compound, the Emax [2] was 94%, the EC50 [3] was > 1000 nM and the EC50 [4] was > 1000 nM.

From patent US12281149B2, “Modulators of G-protein coupled receptors” (priority 2021, dated 2025)
